From patent US20190300868A1, “COMPOSITIONS AND METHODS FOR CRISPR-BASED SCREENING” (The Regents of the University of California, priority 2016, published 2019)

Columns and labels:
K562 cells = assay: Viability of cells loaded onto the device after chemical treatment (epistasis experiment); assay type: cell-based, human
Procedure: (§1) For the perturb-seq epistasis experiment, seven three-guide vectors targeting every possible combination of ATF6, IRE1α, and PERK as well as two independent three-guide vectors with three negative control guide RNAs and different barcodes were individually packaged into lentiviruses. Freshly produced (i.e. not frozen) lentiviruses were spinfected into cBA007 cells (at 33° C. for 2 h at 1000×g) in media supplemented with 8 μg/mL polybrene. The virus was removed by centrifugation and cells were resuspended in fresh media. Three days after infection, transduction efficiencies of 5-10% were measured by flow cytometry. Cells were combined into a pool with equal numbers of transduced (BFP+) cells for each vector (resulting in 2-fold excess of negative control vectors) and the combined cells were then sorted on a BD 63 FACS Aria2 to near purity. To limit heterogenous effects of cell microenvironments caused by cell settling, the sorted cells were grown with continuous agitation on an orbital shaker. Five days after infection, the pooled and sorted cells were split into three populations, which were treated as follows: 1) DMSO control treatment for 6 hr; 2) treatment with 4 μg/mL tunicamycin for 6 hr; and 3) treatment with 100 nM thapsigargin for 4 hr. […]

[1] = tested on: K562 cells with dCas9-KRAB; assay: Single-cell RNA-seq cell cycle analysis of thapsigargin-treated cells; assay type: cell-based, human; conditions: thapsigargin treatment, UPR epistasis experiment
Procedure: as §1, with “purity.” for “purity. To limit heterogenous effects of cell microenvironments caused by cell settling, the sorted cells were grown with continuous agitation on an orbital shaker. Five days after infection, the pooled and sorted cells were split into three populations, which were treated as follows: 1) DMSO control treatment for 6 hr; 2) treatment with 4 μg/mL tunicamycin for 6 hr; and 3) treatment with 100 nM thapsigargin for 4 hr.”
Single-cell analysis in FIG. 3 A population consisting of cells treated with 100 nM thapsigargin in each of our 8 genetic backgrounds was formed, along with DMSO-treated control cells. As outlined in the “Low cell count/inviable cell removal” section, cells with substantially lower than average UMI counts or that scored strongly for inviability markers from analysis were removed, as these groups partitioned away from the rest of the population in preliminary analyses. […]

CHOP mRNA = assay: RT-qPCR of CHOP mRNA in sgRNA-transduced cells +/- thapsigargin; assay type: cell-based, human; conditions: cells transduced with SEC61A1-, SEC61B-, or SEC61G-targeting sgRNAs; 0.5 μM Tg for 1.5 hours
Procedure: RT-qPCR and semi-quantitative PCR for XBP1 mRNA splicing Cells were harvested and total RNA was isolated using TRIzol® Reagent (ThermoFisher Scientific, 15596-018) and Phase Lock Gel tubes (VWR, 10052-170) or NucleoSpin® RNA (Macherey-Nagel, 67 740955.50) essentially according to manufacturers' instructions. RNA prepared by TRIzol® extraction was treated with TURBO™ DNase (ThermoFisher Scientific). RNA was converted to cDNA using SuperScript® II or SuperScript® III Reverse Transcriptase (ThermoFisher Scientific) under standard conditions with oligo(dT) primers or random hexamers with or without RNaseOUT™ Recombinant Ribonuclease Inhibitor (ThermoFisher Scientific). Quantitative PCR reactions were prepared with 1× master mix containing 1× Colorless GoTaq® Reaction Buffer (Promega, M792A), MgCl2 (0.7 mM), dNTPs (0.2 mM each), primers (0.75 μM each), and 1000× SYBR Green with GoTaq® DNA polymerase (Promega, M830B) in 22 μL reactions. Reactions were run on a LightCycler® 480 Instrument (Roche). Semi-quantitative XBP1-specific PCR reactions were prepared with 2 μL of cDNA diluted 1:10 using a master mix containing 0.9× Colorless GoTaq® Reaction Buffer (Promega, M792A), dNTPs (0.23 mM each), primers (0.45 μM each) with GoTaq® DNA polymerase (Promega, M830B) in 22.1 μL reactions. […]

[2] = tested on: mCherry reporter of IRE1α activation; assay: UPRE mCherry / EF1α GFP reporter in K562 reporter cells (cBA011), flow cytometry; assay type: cell-based, human; conditions: K562 reporter cells (cBA011) treated with tunicamycin
[3] = tested on: genomically integrated GFP; assay: GFP knockdown by sgRNA expression vectors, flow cytometry; assay type: cell-based, human; conditions: paired with EGFP-NT2 protospacer; cr2 from mU6, cr3 from hU6 promoter
mRFP = assay: E. coli CRISPRi reporter strain, knockdown of mRFP by constant region variants; assay type: cell-based; conditions: mRFP-targeting protospacer
Text: Design and cloning of constant region variants for testing in E. coli. Constant region bases to mutate were identified by inspection of the crystal structure of Cas9 bound to guide RNA and target DNA (FIG. 9D, PDB ID codes 4OO8, 4UN3, 4ZT0 (Nishimasu et al. 2014, Anders et al. 2014, Jiang et al. 2015)). […] If applicable, sequence conservation patterns of the base in crRNAs/tracrRNAs of Streptococcus species and previous reports of constant regions carrying changes at the base (Briner et al. 2014, Dang et al. 2015) were used to determine the type of mutation. In this fashion, 15 constant region variants with mutations in different parts of the constant region were designed (FIG. 2D). The most diverse constant region variants cr2 and cr3 were designed by combining multiple individual mutations (FIG. 2D). To rapidly assess the activity of the variant constant regions, the variants were fused to a mRFP-targeting guide RNA (mRFP-NT1, sequence […] (SEQ ID NO: 36)) (Qi et al. 2013) and tested in an E. coli CRISPRi reporter strain for knockdown of mRFP (see below). To eliminate variability from copy number variation, guide RNAs were cloned into a plasmid for site-specific integration into the E. coli genome at attL and expressed from single copy from an IPTG-inducible PLlacO-1 promoter (Lutz, Bujard 1997). […]

**Q.** What does the source list for `C/C=C(/C)C(=O)O[C@H]1C(C)=C2[C@H]([C@@H]1OC(=O)CCCCCCC)[C@@](C)(OC(C)=O)C[C@H](OC(=O)CCC)[C@@]1(O)[C@H]2OC(=O)[C@@]1(C)O` [thapsigargin]?
**A.** viable cells loaded onto the device (K562 cells; human, 4 hr, 100 nM): 85.3%; cell cycle effect [1]: PERK-dependent cell cycle arrest in G1; CHOP expression (CHOP mRNA): CHOP upregulation

**Q.** What does the source list for tunicamycin?
**A.** XBP1-dependent mCherry induction [2]: ≤ 16 fold; induction of GFP (EF1a promoter control reporter) [2]: no similar induction; viable cells loaded onto the device (K562 cells; 4 μg/mL tunicamycin for 6 hr or 100 nM thapsigargin for 4 hr): 87.9%

B1: cr2: sgRNA constant region, combination of 3, 5, 9, 15, SEQ ID NO: 25 (nucleic acid)
chain: GTTTGAGAGCTAAGCAGAAAGCTGCATAGCAAGTTCAAATAAGGCTAGTCCGTACACAACTTGAAAAAGTGGCAGCCGAGTCGGCTGCTTTTTTT
modifications: expressed or natural sequence
**Q.** With B1 as the molecule, how does the “GFP depletion in K562 cells” value [3] read?
**A.** indistinguishable from that of the Perturb-seq vector

**Q.** What about the “function of constant region in bacteria” value (mRFP) of the same molecule?
**A.** functional in bacteria

B2: cr3: sgRNA constant region, combination of 2, 4, 10, 14, SEQ ID NO: 26 (nucleic acid)
chain: GTTTCAGAGCTAAGCACAAGAGTGCATAGCAAGTTGAAATAAGGCTAGTCCGTTTACAACTTGAAAAAGTGGCACCCGAGTCGGGTGCTTTTTTT
modifications: expressed or natural sequence
**Q.** Which results are given for B2?
**A.** GFP depletion in K562 cells [3]: indistinguishable from that of the Perturb-seq vector; function of constant region in bacteria (mRFP): functional in bacteria
